Data reported in ChEMBL document CHEMBL1146272, “Isoindolone derivatives, a new class of 5-HT2C antagonists: synthesis and biological evaluation” (Bioorg Med Chem Lett, 2007).
Active and inactive are the calls of the source. The rule behind the calls is not given here.

Assays:
[1] = target: T1, 5-hydroxytryptamine receptor 2C (Homo sapiens, UniProt P28335); experiment: Displacement of [3H]mesulergine from 5HT2C receptor expressed in HEK293 cells; assay type: cell-based
T1 sequence (P28335 whole entry): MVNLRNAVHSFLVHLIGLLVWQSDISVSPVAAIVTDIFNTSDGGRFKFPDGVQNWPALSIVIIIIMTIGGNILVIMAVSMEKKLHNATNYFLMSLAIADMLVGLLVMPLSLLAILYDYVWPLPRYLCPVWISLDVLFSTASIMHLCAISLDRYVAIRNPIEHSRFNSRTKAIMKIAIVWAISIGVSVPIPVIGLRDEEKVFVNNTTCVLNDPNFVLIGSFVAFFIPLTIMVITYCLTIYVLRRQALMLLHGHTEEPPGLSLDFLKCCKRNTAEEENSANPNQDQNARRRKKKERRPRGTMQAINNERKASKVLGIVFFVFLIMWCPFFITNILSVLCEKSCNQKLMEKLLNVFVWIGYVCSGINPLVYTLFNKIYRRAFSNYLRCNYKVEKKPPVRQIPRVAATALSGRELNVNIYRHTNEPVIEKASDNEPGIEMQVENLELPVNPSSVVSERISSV

[2] = target: T2, 5-hydroxytryptamine receptor 2A (Homo sapiens, UniProt P28223); experiment: Displacement of [3H]ketanserin from 5HT2A receptor expressed in HEK293 cells; assay type: cell-based
[3] = target: T3, 5-hydroxytryptamine receptor 2B (Homo sapiens, UniProt P41595); experiment: Displacement of [3H]5-HT from 5HT2B receptor expressed in HEK293 cells; assay type: cell-based
[4] = target: T4, 5-hydroxytryptamine receptor 2C (Homo sapiens) (UniProt P28335); experiment: Agonist activity at 5HT2C receptor expressed in HEK293 cells assessed as intracellular calcium mobilisation up to 10 uM; assay type: functional, cell-based
T4 sequence (whole entry): T1 sequence (P28335 whole entry)

[5] = target: T2, 5-hydroxytryptamine receptor 2A; experiment: Agonist activity at 5HT2A receptor expressed in HEK293 cells assessed as intracellular calcium mobilisation up to 10 uM; assay type: functional, cell-based
[6] = target: T3, 5-hydroxytryptamine receptor 2B; experiment: Agonist activity at 5HT2B receptor expressed in HEK293 cells assessed as intracellular calcium mobilisation up to 10 uM; assay type: functional, cell-based
[7] = target: T4, 5-hydroxytryptamine receptor 2C (Homo sapiens); experiment: Antagonist activity at 5HT2C receptor expressed in HEK293 cells assessed as blockade of 5-hydroxytryptamine-induced intracellular calcium mobilisation; assay type: functional, cell-based
[8] = Blood clearance in iv dosed rat; assay type: ADME, organism-based; settings: whole blood
[9] = Volume of distribution in iv dosed rat; assay type: ADME, organism-based; settings: in vivo, read-out: Vdss
[10] = Oral bioavailability in po dosed rat; assay type: ADME, organism-based; settings: in vivo

T3 sequence (P41595 whole entry): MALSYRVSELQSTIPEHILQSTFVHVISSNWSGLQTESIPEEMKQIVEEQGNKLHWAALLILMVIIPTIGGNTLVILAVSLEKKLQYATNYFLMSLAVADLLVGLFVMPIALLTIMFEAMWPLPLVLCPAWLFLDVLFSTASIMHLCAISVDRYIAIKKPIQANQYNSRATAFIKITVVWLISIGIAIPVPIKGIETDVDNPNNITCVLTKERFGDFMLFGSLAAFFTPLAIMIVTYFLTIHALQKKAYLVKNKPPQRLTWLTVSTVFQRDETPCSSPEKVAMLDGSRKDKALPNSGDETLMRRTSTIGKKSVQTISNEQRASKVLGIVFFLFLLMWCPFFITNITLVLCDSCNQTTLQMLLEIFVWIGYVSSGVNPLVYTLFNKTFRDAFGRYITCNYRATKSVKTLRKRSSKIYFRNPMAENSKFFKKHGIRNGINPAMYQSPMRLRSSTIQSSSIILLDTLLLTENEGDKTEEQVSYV
T2 sequence (P28223 whole entry): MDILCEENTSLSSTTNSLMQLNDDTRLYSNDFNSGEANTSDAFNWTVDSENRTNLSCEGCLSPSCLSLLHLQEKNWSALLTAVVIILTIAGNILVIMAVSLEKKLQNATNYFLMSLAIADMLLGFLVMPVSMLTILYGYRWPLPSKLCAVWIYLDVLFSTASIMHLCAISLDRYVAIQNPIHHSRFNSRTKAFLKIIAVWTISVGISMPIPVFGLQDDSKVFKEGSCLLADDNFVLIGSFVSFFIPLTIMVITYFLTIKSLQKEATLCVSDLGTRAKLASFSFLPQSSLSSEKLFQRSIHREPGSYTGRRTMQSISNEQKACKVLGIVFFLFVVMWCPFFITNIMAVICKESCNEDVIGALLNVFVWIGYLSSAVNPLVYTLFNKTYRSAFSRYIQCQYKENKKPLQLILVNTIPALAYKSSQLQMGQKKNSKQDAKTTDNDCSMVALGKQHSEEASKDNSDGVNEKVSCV

| Compound | Ki [1] [nM] | Ki [2] [nM] | Ki [3] [nM] | Activity [4] | Activity [5] | Activity [6] | pKb [7] | clearance [8] [mL/min/kg] | Vd [9] [L/kg] | bioavailability [10] [%] | Log Ki ([3]; hek293) |
| --- | --- | --- | --- | --- | --- | --- | --- | --- | --- | --- | --- |
| COc1ccc(N2Cc3ccc(Cl)cc3C2=O)cc1OCCN1CCC(C)CC1 | 20 | 794 | > 1000 | inactive | inactive | inactive | – | – | – | – | – |
| COc1ccc(N2Cc3cc(Cl)c(Cl)c(C)c3C2=O)cc1OCCN1CCC(C)CC1 | 2.51 | 398 | 100 | inactive | inactive | inactive | – | 16 | 6.8 | 43 | – |
| CCOC(=O)c1ccc(N2Cc3ccccc3C2=O)cc1OCCN(CC)CC | – | – | – | inactive | inactive | inactive | – | – | – | – | – |
| COc1ccc(N2Cc3cc(C)cc(C)c3C2=O)cc1OCCN1CCC(C)CC1 | 3.16 | 1260 | 316 | inactive | inactive | inactive | – | 59 | 7.8 | 10 | – |
| COc1ccc(N2Cc3cccc(Cl)c3C2=O)cc1OCCN1CCCCC1 | 3.98 | 1000 | 316 | inactive | inactive | inactive | – | – | – | – | – |
| COc1ccc(N2CC=C(c3ccc(Cl)c(Cl)c3)C2=O)cc1OCCN1CCC(C)CC1 | – | – | – | inactive | inactive | inactive | – | – | – | – | – |
| COc1ccc(N2Cc3cccc(Cl)c3C2=O)cc1OCCN1CCC(C)CC1 | 1.58 | 794 | 126 | inactive | inactive | inactive | 8.7 | – | – | – | – |
| COc1ccc(N2Cc3cc(Cl)cc(Cl)c3C2=O)cc1OCCN1CCC(C)CC1 | 1.58 | 398 | 200 | inactive | inactive | inactive | 8.8 | 50 | 5.8 | – | – |
| COc1ccc(N2Cc3cc(Cl)c(Cl)cc3C2=O)cc1OCCN1CCC(C)CC1 | 5.01 | 501 | 200 | inactive | inactive | inactive | – | 16 | 8.5 | 22 | – |
| COc1ccc(N2Cc3cccc(C#N)c3C2=O)cc1OCCN1CCC(C)CC1 | 10 | > 3160 | > 794 | inactive | inactive | inactive | – | – | – | – | – |
| COc1ccc(N2Cc3cccc(F)c3C2=O)cc1OCCN1CCCCC1 | 79.4 | > 10000 | > 3160 | inactive | inactive | inactive | – | – | – | – | – |
| COc1ccc(N2Cc3ccc(Cl)c(Cl)c3C2=O)cc1OCCN1CCC(C)CC1 | 1 | 501 | 100 | inactive | inactive | inactive | – | – | – | – | – |
| COc1ccc(N2Cc3cc(Cl)c(C)c(Cl)c3C2=O)cc1OCCN1CCC(C)CC1 | 1.26 | 631 | 63.1 | inactive | inactive | inactive | – | 43 | 9.1 | 24 | – |
| COc1ccc(N2Cc3cccc(Br)c3C2=O)cc1OCCN1CCC(C)CC1 | 0.794 | 631 | 158 | inactive | inactive | inactive | 9.3 | – | – | – | – |
| COc1ccc(N2Cc3cc(Cl)ccc3C2=O)cc1OCCN1CCCCC1 | 50.1 | > 6310 | > 10000 | inactive | inactive | inactive | 6.9 | – | – | – | – |
| COc1ccc(N2Cc3cc(Cl)cc(Cl)c3C2=O)cc1OCCN1CCCC(C)C1 (stereo unspecified) | 2.51 | > 1260 | 126 | inactive | inactive | inactive | – | – | – | – | – |
| COc1ccc(N2Cc3cccc(C)c3C2=O)cc1OCCN1CCC(C)CC1 | 2.51 | > 6310 | 200 | inactive | inactive | inactive | – | – | – | – | – |

Results, then the molecule that gave them:

| Ki [1] [nM] | Ki [2] [nM] | Ki [3] [nM] | Activity [4] | Activity [5] | Activity [6] | pKb [7] | clearance [8] [mL/min/kg] | Vd [9] [L/kg] | bioavailability [10] [%] | Log Ki ([3]; hek293) | Compound |
| --- | --- | --- | --- | --- | --- | --- | --- | --- | --- | --- | --- |
| 0.398 | 251 | 251 | inactive | inactive | inactive | – | – | – | – | – | COc1ccc(N2Cc3cc(F)cc(C(F)(F)F)c3C2=O)cc1OCCN1CCC(C)CC1 |
| 126 | > 3980 | > 3160 | inactive | inactive | inactive | – | – | – | – | – | COc1ccc(N2Cc3cc(C)cc(C)c3C2=N)cc1OCCN1CCC(C)CC1 |
| 251 | > 7940 | > 794 | inactive | inactive | inactive | 6 | – | – | – | – | COc1ccc(N2Cc3c(Cl)cccc3C2=O)cc1OCCN1CCCCC1 |
| 10 | > 3980 | > 2510 | inactive | inactive | inactive | – | – | – | – | – | COc1ccc(N2Cc3cc(Cl)cc(Cl)c3C2=O)cc1OCCN1CCCCC1C (stereo unspecified) |
| 1.58 | 631 | 501 | inactive | inactive | inactive | – | – | – | – | – | COc1ccc(N2Cc3cccc(C(F)(F)F)c3C2=O)cc1OCCN1CCC(C)CC1 |
| 2.51 | 631 | 200 | inactive | inactive | inactive | – | – | – | – | – | COc1ccc(N2Cc3cc(Cl)cc(Cl)c3C2=O)cc1OCCN1CCCCCC1 |
| – | – | – | inactive | inactive | inactive | – | – | – | – | – | COc1ccc(N2Cc3c(c4cc(Cl)ccc4n3C)C2=O)cc1OCCN1CCC(C)CC1 |
| 12.6 | > 7940 | > 1000 | inactive | inactive | inactive | – | – | – | – | – | COc1ccc(N2Cc3cc(Cl)cc(Cl)c3C2=O)cc1OCCN1CCOCC1 |
| 50.1 | > 10000 | > 1580 | inactive | inactive | inactive | – | – | – | – | – | COc1ccc(N2Cc3ccccc3C2=O)cc1OCCN1CCCCC1 |
| 25.1 | > 1000 | > 1000 | inactive | inactive | inactive | – | – | – | – | – | COc1ccc(N2Cc3cc(Cl)ccc3C2=O)cc1OCCN1CCC(C)CC1 |
| 15.8 | > 2510 | > 1580 | inactive | inactive | inactive | 7.2 | – | – | – | – | COc1ccc(N2Cc3ccc(Cl)cc3C2=O)cc1OCCN1CCCCC1 |
| 200 | > 6310 | > 7940 | inactive | inactive | inactive | – | – | – | – | – | COc1ccc(N2Cc3cccc(OC)c3C2=O)cc1OCCN1CCCCC1 |
| 1.26 | > 1260 | 200 | inactive | inactive | inactive | – | 53 | 8.2 | – | – | COc1ccc(N2C(=O)c3c(Cl)cccc3C2C)cc1OCCN1CCC(C)CC1 (stereo unspecified) |
| 2 | 501 | 126 | inactive | inactive | inactive | – | – | – | – | – | COc1ccc(N2Cc3c(F)c(F)cc(Cl)c3C2=O)cc1OCCN1CCC(C)CC1 |
| 6.31 | 316 | 126 | inactive | inactive | inactive | – | – | – | – | – | COc1ccc(N2Cc3cc(Cl)cc(Cl)c3C2=O)cc1OCCN1[C@H](C)CCC[C@@H]1C |
| 126 | > 1580 | – | inactive | inactive | inactive | – | – | – | – | > -6.7 | COc1ccc(N2Cc3c(Cl)cccc3C2=O)cc1OCCN1CCC(C)CC1 |
| 6.31 | > 1000 | > 1000 | inactive | inactive | inactive | – | 48 | 1.9 | 4 | – | COc1ccc(N2Cc3c(F)ccc(C(F)(F)F)c3C2=O)cc1OCCN1CCC(C)CC1 |
| 2 | 398 | 251 | inactive | inactive | inactive | – | – | – | – | – | COc1ccc(N2Cc3cc(Cl)cc(Cl)c3C2=O)cc1OCCN1CCC(C)(C)CC1 |
